The values that follow come from patent publication US9409892B2, “4-hydroxy-isoquinoline compounds as HIF hydroxylase inhibitors” (FIBROGEN, INC., priority 2012, dated 2016).

By IC50 is commonly meant the midpoint of a concentration-inhibition curve.

Experiment [1] has as its target PHD1 (EGLN2) (Homo sapiens (Human), UniProt Q96KS0). Kind of experiment: HIF-PH assay (14CO2 capture), PHD1 enzyme inhibition. The note with it: for IC50: individual measurement, read-out: IC50 (μM) PHD1. It counts as biochemical. The text has this:
(§1) Ketoglutaric acid α-[1-^14C]-sodium salt, alpha-ketoglutaric acid sodium salt, and HPLC purified peptide may be obtained from commercial sources, e.g., Perkin-Elmer (Wellesley Mass.), Sigma-Aldrich, and SynPep Corp. (Dublin Calif.), respectively. Peptides for use in the assay may be fragments of HIFα as described above or as disclosed in International Publication WO 2005/118836, incorporated by reference herein. HIF-pH, e.g., PHD1 (EGLN2) or PHD2 (EGLN1), can be expressed in, e.g., insect Hi5 cells, and partially purified, e.g., through a SP ion exchange chromatography column. Enzyme activity is determined by capturing ^14CO2 using an assay described by Kivirikko and Myllyla (1982, Methods Enzymol. 82:245-304). Assay reactions contain 50 mM HEPES (pH 7.4), 100 μM α-ketoglutaric acid sodium salt, 0.30 mCi/mL ketoglutaric acid α-[1-^14C]-sodium salt, 40 μM FeSO4, 1 mM ascorbate, 1541.8 units/mL Catalase, with or without 50 μM peptide substrate and various concentrations of compound of the invention. Reactions are initiated by addition of HIF-PH enzyme.
(§2) The peptide-dependent percent turnover is calculated by subtracting percent turnover in the absence of peptide from percent turnover in the presence of substrate peptide. Percent inhibition and IC50 are calculated using peptide-dependent percent turnover at given inhibitor concentrations. Calculation of IC50 values for each inhibitor is conducted using GraFit software (Erithacus Software Ltd., Surrey UK).
(§3) The PHD2/PHD1 is the ratio of the IC50 of the compound for each enzyme.

Experiment [2] addresses PHD2 (EGLN1) (Homo sapiens (Human), UniProt Q9GZT9). Briefly: HIF-PH assay (14CO2 capture), PHD2 enzyme inhibition. In kind it is biochemical. The settings on record: Table 1; individual measurement; read-out: IC50 (μM) PHD2.
From the text: as §1, §2, §3

Where [3] appears, read: Table 1, ratio of the IC50 of the compound for each enzyme.

The structures appear in SMILES notation.

PHD1 (EGLN2), sequence (Q96KS0 whole entry, the tested form may be a part): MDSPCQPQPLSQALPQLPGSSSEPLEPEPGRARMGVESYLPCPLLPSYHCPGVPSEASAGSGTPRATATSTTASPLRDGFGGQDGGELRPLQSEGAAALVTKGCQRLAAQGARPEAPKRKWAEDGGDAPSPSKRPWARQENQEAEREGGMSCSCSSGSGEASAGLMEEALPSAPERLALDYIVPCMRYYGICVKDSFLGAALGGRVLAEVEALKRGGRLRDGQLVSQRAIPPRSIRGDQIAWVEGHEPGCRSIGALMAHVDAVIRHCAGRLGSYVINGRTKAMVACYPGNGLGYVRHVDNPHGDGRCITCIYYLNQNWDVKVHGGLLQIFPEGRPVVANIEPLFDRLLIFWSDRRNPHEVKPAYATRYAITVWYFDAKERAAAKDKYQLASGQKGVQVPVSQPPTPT
PHD2 (EGLN1), sequence (Q9GZT9 whole entry): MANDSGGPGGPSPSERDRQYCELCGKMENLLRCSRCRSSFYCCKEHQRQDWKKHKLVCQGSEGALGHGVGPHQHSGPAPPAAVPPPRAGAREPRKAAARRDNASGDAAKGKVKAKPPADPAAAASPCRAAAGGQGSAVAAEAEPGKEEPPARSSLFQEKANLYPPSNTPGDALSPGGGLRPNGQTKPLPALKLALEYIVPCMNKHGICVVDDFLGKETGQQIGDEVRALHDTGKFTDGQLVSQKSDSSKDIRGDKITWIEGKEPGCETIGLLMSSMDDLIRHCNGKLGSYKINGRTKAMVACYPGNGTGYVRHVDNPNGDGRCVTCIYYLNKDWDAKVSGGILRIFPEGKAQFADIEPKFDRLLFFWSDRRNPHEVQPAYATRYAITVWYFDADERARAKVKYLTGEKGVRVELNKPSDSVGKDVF

For `O=C(NCC1(C(=O)O)CCOCC1)c1ncc2cc(Oc3ccccc3)ccc2c1O` [Compound 15, 4-{[(4-Hydroxy-7-phenoxy-isoquinoline-3-carbonyl)-amino]-methyl}-tetrahydro-pyran-4-carboxylic acid], the results for the IC50 in experiment [1] (Table 1) and in experiment [2] were 9.71 µM and 51.5 µM, respectively. In experiment [1] (setting [3]), the PHD2/PHD1 worked out at 5.

`N#Cc1nc(C(=O)NCC2(C(=O)O)CCOCC2)c(O)c2ccc(Oc3ccccc3)cc12` [Compound 16, 4-{[(1-Cyano-4-hydroxy-7-phenoxy-isoquinoline-3-carbonyl)-amino]-methyl}-tetrahydro-pyran-4-carboxylic acid]: the values for the IC50 in experiment [1] (Table 1) and in experiment [2] were 1.89 µM and 24.3 µM, respectively. The PHD2/PHD1 in experiment [1] (setting [3]) worked out at 13.

As for `CCCC(CNC(=O)c1nc(C#N)c2cc(Oc3ccccc3)ccc2c1O)C(=O)O` (stereo not shown) [Compound 17, 2-{[(1-Cyano-4-hydroxy-7-phenoxy-isoquinoline-3-carbonyl)-amino]-methyl}-pentanoic acid], the IC50 in experiment [1] (Table 1) was determined as 3.39 µM; in experiment [2], 47.9 µM. Besides, in experiment [1] (setting [3]), the PHD2/PHD1 was 14.

Regarding `CCCC(CCC)(CNC(=O)c1nc(C#N)c2cc(Oc3ccccc3)ccc2c1O)C(=O)O` [Compound 18, 2-{[(1-Cyano-4-hydroxy-7-phenoxy-isoquinoline-3-carbonyl)-amino]-methyl}-2-propyl-pentanoic acid], the IC50 in experiment [1] (Table 1) amounted to 4.43 µM; in experiment [2] it was 29.9 µM. Moreover, in experiment [1] (setting [3]), the PHD2/PHD1 is reported as 7.

`N#Cc1nc(C(=O)NCC2(C(=O)O)CCCC2)c(O)c2ccc(Oc3ccccc3)cc12` [Compound 19, 1-{[(1-Cyano-4-hydroxy-7-phenoxy-isoquinoline-3-carbonyl)-amino]-methyl}-cyclopentanecarboxylic acid]: the half-maximal inhibitory concentration (IC50) amounted to 1.73 µM in experiment [1] (Table 1) and 22.8 µM in experiment [2]. For the same compound, in experiment [1] (setting [3]), the PHD2/PHD1 is given as 13.

On to `COc1ccc(Oc2ccc3c(O)c(C(=O)NCC(C)(C)C(=O)O)nc(C#N)c3c2)cc1` [Compound 20, 3{-[1-Cyano-4-hydroxy-7-(4-methoxy-phenoxy)-isoquinoline-3-carbonyl]-amino}-2,2-dimethyl-propionic acid], for which the IC50 in experiment [1] (Table 1) stood at 0.35 µM; in experiment [2], 5.22 µM. Also, the PHD2/PHD1 in experiment [1] (setting [3]) amounted to 15.

On to `COc1ccc(Oc2ccc3c(O)c(C(=O)NC(C)(C)CC(=O)O)nc(C#N)c3c2)cc1` [Compound 21, 3{-[1-Cyano-4-hydroxy-7-(4-methoxy-phenoxy)-isoquinoline-3-carbonyl]-amino}-3-methyl-butyric acid], for which the IC50 in experiment [1] (Table 1) turned out to be 0.24 µM; in experiment [2], 9.4 µM. The PHD2/PHD1 in experiment [1] (setting [3]) is listed as 39.

For the compound `CC(C)(CNC(=O)c1nc(C#N)c2cc(Oc3c(F)cccc3F)ccc2c1O)C(=O)O` [Compound 22, 3-{[1-Cyano-7-(2,6-difluoro-phenoxy)-4-hydroxy-isoquinoline-3-carbonyl]-amino}-2,2-dimethyl-propionic acid], the IC50 stood at 0.93 µM in experiment [1] (Table 1) and 15.1 µM in experiment [2]. Moreover, in experiment [1] (setting [3]), the PHD2/PHD1 came to 16.

Consider `CC(C)(CNC(=O)c1ncc2cc(Oc3ccc(Cl)c(F)c3)ccc2c1O)C(=O)O` [Compound 23, 3-{[7-(4-Chloro-3-fluoro-phenoxy)-4-hydroxy-isoquinoline-3-carbonyl]-amino}-2,2-dimethyl-propionic acid], for which the IC50 in experiment [1] (Table 1) came out at 2.77 µM; in experiment [2] it was 12.7 µM. Moreover, the PHD2/PHD1 in experiment [1] (setting [3]) is 5.

Consider `O=C(O)CCNC(=O)c1ncc2cc(Oc3cccnc3)ccc2c1O` [Compound 24, 3-{[4-Hydroxy-7-(pyridin-3-yloxy)-isoquinoline-3-carbonyl]-amino}-propionic acid], for which the results for the IC50 in experiment [1] (Table 1) and in experiment [2] were 2.31 µM and 23.3 µM, respectively. Besides, the PHD2/PHD1 turned out to be 10 in experiment [1] (setting [3]) and 10 in experiment [1] (Table 2 comparative data, IC50 PHD2/IC50 PHD1).

Consider `O=C(O)CCNC(=O)c1ncc2cc(Oc3ccccn3)ccc2c1O` [Compound 25, 3-{[4-Hydroxy-7-(pyridin-2-yloxy)-isoquinoline-3-carbonyl]-amino}-propionic acid], for which the 50% inhibitory concentration (IC50) in experiment [1] (Table 1) stood at 4.57 µM; in experiment [2], 44.6 µM. The PHD2/PHD1 in experiment [1] (setting [3]) is 10.
